# Assay results from patent US20210255193A1, “LYSINE REACTIVE PROBES AND USES THEREOF” (The Scripps Research Institute, priority 2017, published 2021).
# Tests used:
# Assay in all cases: competitive isoTOP-ABPP
# Type in all cases: binding
# [1] = biological target: T1, FECH Ferrochelatase, mitochondrial (Homo sapiens, UniProt P22830); conditions: 50 uM, 231 sol, in vitro; for R value (DMSO/fragment) for probe 1 labeling: P22830_K304
# T1 construct: isoTOP-ABPP experiments performed in cell lysates (in vitro); endogenous in cells; host or cells: soluble proteome of human cancer cell lines (MDA-MB-231; Ramos and Jurkat also prepared)
# T1 sequence (P22830 55-423): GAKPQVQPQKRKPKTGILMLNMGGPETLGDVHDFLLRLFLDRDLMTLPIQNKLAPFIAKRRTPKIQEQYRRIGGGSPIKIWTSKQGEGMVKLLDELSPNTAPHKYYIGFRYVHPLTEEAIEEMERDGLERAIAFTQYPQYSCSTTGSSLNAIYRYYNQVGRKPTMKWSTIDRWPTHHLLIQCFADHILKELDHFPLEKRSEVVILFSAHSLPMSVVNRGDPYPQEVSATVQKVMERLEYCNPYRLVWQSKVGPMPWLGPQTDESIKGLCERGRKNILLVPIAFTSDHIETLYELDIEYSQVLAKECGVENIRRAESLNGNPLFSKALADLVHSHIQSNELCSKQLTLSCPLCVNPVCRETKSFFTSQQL
# Summary of the method: (§1)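 Here, isoTOP-ABPP measures loss of STP-alkyne labeling at individual lysines after fragment exposure in lysate. Activated esters are dosed at 50 μM, guanidinylating agents at 100 μM; the probe follows at 0.1 mM for 1 h. R ≥4 marks a liganded lysine.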
# [2] = biological target: T2, KPNA2 Importin subunit alpha-2 (Homo sapiens, UniProt P52292); conditions: 50 uM, in vitro; for R value (DMSO/fragment) for probe 1 labeling: P52292_K459; for R value (DMSO/fragment) for probe 1 labeling / isoTOP-ABPP reactivity ratio at lysine P52292_K459: 231 sol; for isoTOP-ABPP ratio (R) at liganded lysine P52292_K459: sol, 231
# T2 construct: isoTOP-ABPP experiments performed in cell lysates (in vitro); endogenous in cells; host or cells: soluble proteome of human cancer cell lines (MDA-MB-231, Ramos, Jurkat)
# Summary of the method: as §1
# [3] = biological target: T3, RINT1 RAD50-interacting protein 1 (Homo sapiens, UniProt Q6NUQ1); conditions: 50 uM, in vitro; for R value (DMSO/fragment) for probe 1 labeling: Q6NUQ1_K771; for R value (DMSO/fragment) for probe 1 labeling / isoTOP-ABPP reactivity ratio at lysine Q6NUQ1_K771: 231 sol; for isoTOP-ABPP ratio (R) at liganded lysine Q6NUQ1_K771: sol, 231
# T3 construct: isoTOP-ABPP experiments performed in cell lysates (in vitro); endogenous in cells; host or cells: soluble proteome of human cancer cell lines (MDA-MB-231; Ramos and Jurkat also prepared)
# Summary of the method: as §1
# [4] = biological target: T4, TRAP1 Heat shock protein 75 kDa, mitochondrial (Homo sapiens, UniProt Q12931); conditions: 50 uM, in vitro; for R value (DMSO/fragment) for probe 1 labeling: Q12931_K699; for R value (DMSO/fragment) for probe 1 labeling / isoTOP-ABPP reactivity ratio at lysine Q12931_K699: 231 sol; for isoTOP-ABPP ratio (R) at liganded lysine Q12931_K699: sol, 231
# T4 construct: isoTOP-ABPP experiments performed in cell lysates (in vitro); endogenous in cells; host or cells: soluble proteome of human cancer cell lines (MDA-MB-231, Ramos, Jurkat)
# T4 sequence (Q12931 60-704): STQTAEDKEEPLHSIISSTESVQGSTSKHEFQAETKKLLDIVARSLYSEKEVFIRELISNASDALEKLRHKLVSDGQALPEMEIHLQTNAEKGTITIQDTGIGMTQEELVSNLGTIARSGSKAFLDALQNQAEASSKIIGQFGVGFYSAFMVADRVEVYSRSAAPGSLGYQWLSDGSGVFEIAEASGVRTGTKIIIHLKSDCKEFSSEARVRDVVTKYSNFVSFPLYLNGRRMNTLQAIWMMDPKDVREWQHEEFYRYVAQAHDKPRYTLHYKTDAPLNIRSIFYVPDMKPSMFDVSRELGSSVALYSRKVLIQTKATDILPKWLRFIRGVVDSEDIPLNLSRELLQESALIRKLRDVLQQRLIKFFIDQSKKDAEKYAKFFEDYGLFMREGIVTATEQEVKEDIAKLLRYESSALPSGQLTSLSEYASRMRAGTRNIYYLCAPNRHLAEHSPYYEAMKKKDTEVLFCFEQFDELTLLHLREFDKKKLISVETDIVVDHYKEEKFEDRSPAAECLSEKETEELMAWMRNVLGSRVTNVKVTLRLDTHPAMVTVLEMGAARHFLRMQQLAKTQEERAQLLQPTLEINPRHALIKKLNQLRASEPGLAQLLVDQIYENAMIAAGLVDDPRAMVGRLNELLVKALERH
# Summary of the method: as §1
# T3 sequence (Q6NUQ1 whole entry, the tested form may be a part): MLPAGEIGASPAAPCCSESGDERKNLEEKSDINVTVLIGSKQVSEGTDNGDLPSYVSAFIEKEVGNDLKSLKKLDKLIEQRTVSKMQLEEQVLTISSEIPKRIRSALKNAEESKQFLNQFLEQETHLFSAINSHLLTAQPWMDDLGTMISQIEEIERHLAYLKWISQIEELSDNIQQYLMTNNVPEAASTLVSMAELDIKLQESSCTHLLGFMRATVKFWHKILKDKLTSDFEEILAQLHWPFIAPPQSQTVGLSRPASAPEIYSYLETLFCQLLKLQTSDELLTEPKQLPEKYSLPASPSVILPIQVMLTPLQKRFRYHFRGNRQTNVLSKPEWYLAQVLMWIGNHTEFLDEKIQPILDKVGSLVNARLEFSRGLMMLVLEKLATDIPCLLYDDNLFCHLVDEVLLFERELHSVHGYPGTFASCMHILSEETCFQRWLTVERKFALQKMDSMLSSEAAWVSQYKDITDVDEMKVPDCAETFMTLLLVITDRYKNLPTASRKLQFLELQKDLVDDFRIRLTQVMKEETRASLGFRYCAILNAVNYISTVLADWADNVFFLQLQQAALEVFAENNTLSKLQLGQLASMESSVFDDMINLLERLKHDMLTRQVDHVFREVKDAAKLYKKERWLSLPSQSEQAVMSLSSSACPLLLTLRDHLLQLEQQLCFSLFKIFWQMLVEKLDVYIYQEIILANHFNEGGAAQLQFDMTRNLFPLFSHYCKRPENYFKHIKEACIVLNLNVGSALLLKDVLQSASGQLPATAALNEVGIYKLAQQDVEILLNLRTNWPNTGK
compound,measurement,setting,value
"O=C(CCc1cn(-c2ccccc2)nc1-c1ccccc1)Oc1c(F)c(F)c(F)c(F)c1F [fragment 19, Pentafluorophenyl 3-(1,3-diphenyl-1H-pyrazol-4-yl)propanoate]",R value (DMSO/fragment) for probe 1 labeling,[1],1.8
same,R value (DMSO/fragment) for probe 1 labeling,[2],2.3
same,R value (DMSO/fragment) for probe 1 labeling,[3],1.2
same,R value (DMSO/fragment) for probe 1 labeling,[4],1.2
"O=C(Oc1c(F)c(F)c(F)c(F)c1F)C(c1ccccc1)c1ccccc1 [fragment 20, Pentafluorophenyl 2,2-diphenylacetate]",R value (DMSO/fragment) for probe 1 labeling,[1],1.7
same,R value (DMSO/fragment) for probe 1 labeling,[2],5.5
same,R value (DMSO/fragment) for probe 1 labeling,[3],1.0
same,R value (DMSO/fragment) for probe 1 labeling,[4],1.0
"O=C(Oc1c(F)c(F)c(F)c(F)c1F)c1cc(C(F)(F)F)cc(C(F)(F)F)c1 [fragment 21, Pentafluorophenyl 3,5-bis(trifluoromethyl)benzoate]",R value (DMSO/fragment) for probe 1 labeling,[1],1.0
same,R value (DMSO/fragment) for probe 1 labeling,[2],1.0
same,R value (DMSO/fragment) for probe 1 labeling,[3],2.2
same,R value (DMSO/fragment) for probe 1 labeling,[4],0.9
"Cn1cc(CC(=O)Oc2c(F)c(F)c(F)c(F)c2F)c2ccccc21 [fragment 22, Pentafluorophenyl 2-(1-methyl-1H-indol-3-yl)acetate]",R value (DMSO/fragment) for probe 1 labeling,[1],2.0
same,R value (DMSO/fragment) for probe 1 labeling,[2],6.2
same,R value (DMSO/fragment) for probe 1 labeling,[3],1.0
same,R value (DMSO/fragment) for probe 1 labeling,[4],1.1
"COc1cc(CCC(=O)Oc2c(F)c(F)c(F)c(F)c2F)cc(OC)c1OC [fragment 23, Pentafluorophenyl 3-(3,4,5-trimethoxyphenyl)propanoate]",R value (DMSO/fragment) for probe 1 labeling,[2],1.9
same,R value (DMSO/fragment) for probe 1 labeling,[3],1.1
same,R value (DMSO/fragment) for probe 1 labeling,[4],1.0
"O=C(Oc1c(F)c(F)c(F)c(F)c1F)C1CCN(C(=O)OCc2ccccc2)CC1 [fragment 24, 1-Benzyl 4-(pentafluorophenyl) piperidine-1,4-dicarboxylate]",isoTOP-ABPP reactivity ratio at lysine P22830_K304,[1],1.5
same,isoTOP-ABPP reactivity ratio at lysine P52292_K459,[2],1.2
same,isoTOP-ABPP reactivity ratio at lysine Q6NUQ1_K771,[3],1.0
same,isoTOP-ABPP reactivity ratio at lysine Q12931_K699,[4],0.9
"O=C(Oc1c(F)c(F)c(F)c(F)c1F)c1ccc2ccccc2n1 [fragment 25, Pentafluorophenyl quinoline-2-carboxylate]",isoTOP-ABPP reactivity ratio at lysine P22830_K304,[1],1.0
same,isoTOP-ABPP reactivity ratio at lysine P52292_K459,[2],1.3
same,isoTOP-ABPP reactivity ratio at lysine Q6NUQ1_K771,[3],1.4
same,isoTOP-ABPP reactivity ratio at lysine Q12931_K699,[4],0.9
"O=C(CCc1coc2cc(F)ccc2c1=O)Oc1c(F)c(F)c(F)c(F)c1F [fragment 26, Pentafluorophenyl 3-(7-fluoro-4-oxo-4H-chromen-3-yl)propanoate]",isoTOP-ABPP reactivity ratio at lysine P22830_K304,[1],1.7
same,isoTOP-ABPP reactivity ratio at lysine P52292_K459,[2],8.2
same,isoTOP-ABPP reactivity ratio at lysine Q6NUQ1_K771,[3],0.9
"O=C(CN1C(=O)c2ccccc2C1=O)Oc1c(F)c(F)c(F)c(F)c1F [fragment 27, Pentafluorophenyl 2-(1,3-dioxoisoindolin-2-yl)acetate]",isoTOP-ABPP reactivity ratio at lysine P22830_K304,[1],1.5
same,isoTOP-ABPP reactivity ratio at lysine P52292_K459,[2],1.3
same,isoTOP-ABPP reactivity ratio at lysine Q6NUQ1_K771,[3],1.1
same,isoTOP-ABPP reactivity ratio at lysine Q12931_K699,[4],0.7
"CCn1cc(C(=O)Oc2c(F)c(F)c(F)c(F)c2F)c(=O)c2ccc(C)nc21 [fragment 28, Pentafluorophenyl 1-ethyl-7-methyl-4-oxo-1,4-dihydro-1,8-naphthyridine-3-carboxylate]",isoTOP-ABPP reactivity ratio at lysine P22830_K304,[1],1.5
same,isoTOP-ABPP reactivity ratio at lysine P52292_K459,[2],1.3
same,isoTOP-ABPP reactivity ratio at lysine Q6NUQ1_K771,[3],0.8
same,isoTOP-ABPP reactivity ratio at lysine Q12931_K699,[4],0.9
"O=C(CCc1cn(-c2ccccc2)nc1-c1ccccc1)Oc1ccc([N+](=O)[O-])cc1[N+](=O)[O-] [fragment 29, 2,4-Dinitrophenyl 3-(1,3-diphenyl-1H-pyrazol-4-yl)propanoate]",isoTOP-ABPP reactivity ratio at lysine P22830_K304,[1],5.4
same,isoTOP-ABPP reactivity ratio at lysine P52292_K459,[2],2.0
same,isoTOP-ABPP reactivity ratio at lysine Q6NUQ1_K771,[3],1.2
same,isoTOP-ABPP reactivity ratio at lysine Q12931_K699,[4],2.2
"O=C(Oc1ccc([N+](=O)[O-])cc1[N+](=O)[O-])C(c1ccccc1)c1ccccc1 [fragment 30, 2,4-Dinitrophenyl 2,2-diphenylacetate]",isoTOP-ABPP reactivity ratio at lysine P52292_K459,[2],4.3
same,isoTOP-ABPP reactivity ratio at lysine Q6NUQ1_K771,[3],1.7
same,isoTOP-ABPP reactivity ratio at lysine Q12931_K699,[4],4.1
"O=C(Oc1ccc([N+](=O)[O-])cc1[N+](=O)[O-])c1cc(C(F)(F)F)cc(C(F)(F)F)c1 [fragment 31, 2,4-Dinitrophenyl 3,5-bis(trifluoromethyl)benzoate]",isoTOP-ABPP reactivity ratio at lysine P22830_K304,[1],3.2
same,isoTOP-ABPP reactivity ratio at lysine P52292_K459,[2],1.3
same,isoTOP-ABPP reactivity ratio at lysine Q6NUQ1_K771,[3],20.0
same,isoTOP-ABPP reactivity ratio at lysine Q12931_K699,[4],1.0
"Cn1cc(CC(=O)Oc2ccc([N+](=O)[O-])cc2[N+](=O)[O-])c2ccccc21 [fragment 32, 2,4-Dinitrophenyl 2-(1-methyl-1H-indol-3-yl)acetate]",isoTOP-ABPP reactivity ratio at lysine P52292_K459,[2],1.8
same,isoTOP-ABPP reactivity ratio at lysine Q6NUQ1_K771,[3],1.2
same,isoTOP-ABPP reactivity ratio at lysine Q12931_K699,[4],2.0
"O=C(Oc1ccc([N+](=O)[O-])cc1[N+](=O)[O-])C1CCN(C(=O)OCc2ccccc2)CC1 [fragment 34, 1-Benzyl 4-(2,4-dinitrophenyl) piperidine-1,4-dicarboxylate]",isoTOP-ABPP ratio (R) at liganded lysine P52292_K459,[2],1.0
same,isoTOP-ABPP ratio (R) at liganded lysine Q6NUQ1_K771,[3],1.3
same,isoTOP-ABPP ratio (R) at liganded lysine Q12931_K699,[4],1.8
"O=C(Oc1ccc([N+](=O)[O-])cc1[N+](=O)[O-])c1ccc2ccccc2n1 [fragment 35, 2,4-Dinitrophenyl quinoline-2-carboxylate]",isoTOP-ABPP ratio (R) at liganded lysine P52292_K459,[2],1.3
same,isoTOP-ABPP ratio (R) at liganded lysine Q6NUQ1_K771,[3],1.7
same,isoTOP-ABPP ratio (R) at liganded lysine Q12931_K699,[4],0.9
"O=C(Oc1ccc([N+](=O)[O-])cc1[N+](=O)[O-])c1ccc(-c2ccccc2)cc1 [fragment 37, 2,4-Dinitrophenyl [1,1′-biphenyl]-4-carboxylate]",isoTOP-ABPP ratio (R) at liganded lysine P52292_K459,[2],0.9
same,isoTOP-ABPP ratio (R) at liganded lysine Q6NUQ1_K771,[3],1.3
same,isoTOP-ABPP ratio (R) at liganded lysine Q12931_K699,[4],0.9
"O=C(Oc1ccc([N+](=O)[O-])cc1[N+](=O)[O-])c1ccccc1Nc1cccc(C(F)(F)F)c1 [fragment 40, 2,4-Dinitrophenyl 2-((3-(trifluoromethyl)phenyl)amino)benzoate]",isoTOP-ABPP ratio (R) at liganded lysine P52292_K459,[2],1.7
same,isoTOP-ABPP ratio (R) at liganded lysine Q6NUQ1_K771,[3],1.1
same,isoTOP-ABPP ratio (R) at liganded lysine Q12931_K699,[4],0.9
"CC(C)(C)OC(=O)NCCCC(=O)Oc1ccc([N+](=O)[O-])cc1[N+](=O)[O-] [fragment 41, 2,4-Dinitrophenyl 4-((tert-butoxycarbonyl)amino)butanoate]",isoTOP-ABPP ratio (R) at liganded lysine P52292_K459,[2],2.3
same,isoTOP-ABPP ratio (R) at liganded lysine Q6NUQ1_K771,[3],0.8
same,isoTOP-ABPP ratio (R) at liganded lysine Q12931_K699,[4],1.3
